Data on 49 compounds can be found in PubChem BioAssay AID179 (DTP/NCI, 2004).

This assay relates to CEM cells HIV-1 protection, formazan growth assay. In words: NCI AIDS Antiviral Assay. Particulars: for IC50: measured here: growth of uninfected CEM cells. An outline of the steps: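 Soluble formazan readout of cell growth; CEM cells ± HIV-1; 5 drug concs. ≥50% protection → retest; ≥50% again = moderately active; reproducible 100% = confirmed active.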

Values joined by “and” are separate entries in the source; they are usually repeats but may differ in a detail not shown here. Equal entries are not always repeated. Active and inactive are the calls of the source.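 How the source made its calls: active means compounds giving half or more protection of infected cells from virus-caused growth loss, again on retest; inactive means the rest.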 Bounds are passed on as bounds.

For `COc1ccc2c(c1OC)C(=O)C2`, the EC50 (commonly the concentration giving half of the maximal effect) is above 200 µM and the IC50 (in general, the concentration that gives 50% inhibition) is above 200 µM.

As for `CC1(C)CC[C@]2(C)CC=C3[C@]4(C)CC[C@H]5C(C)(C)C(=O)CC[C@]5(C)[C@H]4CC[C@@]3(C)[C@H]2C1`, the EC50 was above 50.1 µM and the IC50 was above 50.1 µM.

In the case of `C[C@@]12C[C@@H](c3ccccc3O1)N1CCCCSC1=N2`, the EC50 is above 200 µM and the IC50 is above 200 µM.

On to `CC(=O)Oc1ccc(/C=C/C(=O)O[C@@H](C)[C@H](C)OC(=O)/C=C/c2ccc(OC(C)=O)c(OC(C)=O)c2)cc1OC(C)=O`, for which the EC50 was above 100 µM and the IC50 turned out to be 5.62 µM.

For the compound `CC(=O)OC[C@@H](COC(=O)/C=C/c1ccc(O)cc1)OC1OC(CO)C(O)C(O)C1O` (stereo partly drawn), the outcome was inactive.

In the case of `Cc1ccc(CS(=O)(=O)C/N=c2\sc3ccccc3nc2/C=C(\O)c2ccc(Cl)cc2)cc1`, the EC50 was above 200 µM and the IC50 is above 200 µM.

For the compound `CC(C)=C[C@@H]1C[C@H](C)[C@H]2CC[C@H](C)[C@H]3C(=O)C(O)=C(C)C(=O)[C@]123`, the EC50 was above 200 µM and the IC50 was 105 µM.

In the case of `CCOP(=O)(OCC)/C(C#N)=C/c1cnc(C)[nH]1`, the EC50 is above 200 µM and the IC50 is above 200 µM.

Turning to `CCCCCCCCC/C=C(/CC(=O)O)C(=O)O`, the EC50 was above 708 µM and the IC50 was above 708 µM.

`C=C1CCC[C@@H]2[C@@](C)(CC3=CC(=O)C=CC3=O)C(C)CC[C@]12C` (stereo partly drawn): the EC50 is above 60.3 µM and the IC50 was determined as 0.427 µM.

In the case of `COC(=O)N1C2c3ccccc3C(c3ccccc32)N1C(=O)OC`, the EC50 is above 200 µM and the IC50 is above 200 µM.

As to `CC(Nc1n[nH]c(=O)c2c1nnn2Cc1ccccc1)c1ccccc1` (stereo not drawn), the EC50 was 55 µM and 126 µM; the IC50 was 97.7 µM and 447 µM.

With `CCC(C)c1cccc(C)c1NC(=O)C(=O)Cc1nc2ccccc2s1` (stereo not drawn), the EC50 was above 186 µM and the IC50 was above 186 µM.

As for `O=C(Cc1cccs1)N[C@@H]1C(=O)N2C(C(=O)OC(c3ccccc3)c3ccccc3)=C(CO)CS[C@H]12`, the EC50 is above 200 µM and the IC50 was determined as 195 µM.

`Cc1ccc(C2=Nc3ccccc3NC(=O)C2)cc1`: the EC50 was 20.4 µM and the IC50 was found to be 75.9 µM.

As to `C/C(NNC(=O)c1ccccc1O)=C1\C=Nc2ccccc2S1`, the EC50 is above 15.8 µM and the IC50 was determined as 0.0794 µM.

In the case of `CC(=O)O[C@@H]1CCN(Cc2ccccc2)C[C@@H]1CN(C(C)=O)C12CC3CC(CC(C3)C1)C2`, the EC50 was above 8.51 µM and the IC50 was 8.32 µM.

Turning to `NC(=O)C(N)C(F)c1ccccc1` (stereo not drawn), the EC50 is above 200 µM and the IC50 was above 200 µM.

Take `COC(=O)C(C(=O)C(=O)Nc1ccc(OC)cc1[N+](=O)[O-])c1nc2cc(C)c(C)cc2[nH]c1=O` (stereo not drawn): the EC50 was above 15.5 µM and the IC50 was above 15.5 µM.

Take `O=S(c1ccccc1)[C@H]1CC2C3CC4C2C4C31` (stereo partly drawn): the EC50 is above 107 µM and the IC50 was above 107 µM.

In the case of `CC(C)c1ccc(C2C3=C(N=C4SCC(=O)N42)C(=O)c2ccccc23)cc1` (stereo not drawn), the EC50 was above 13.8 µM and the IC50 was above 13.8 µM.

As for `O=C1/C(=C/c2cccc(Cl)c2)CCc2ccccc21`, the EC50 was above 10 µM and the IC50 was above 10 µM.

As for `Clc1nc(NC23CC4CC(CC(C4)C2)C3)nc(NC23CC4CC(CC(C4)C2)C3)n1`, the EC50 is above 200 µM and the IC50 was 52.5 µM.

Turning to `CC1(CO)C(O)CCC2(C)C1C(O)CC1CC3CC12CCC3(O)CO` (stereo not drawn), the EC50 is above 708 µM and the IC50 was determined as 138 µM.

Take `CC12CCC(=O)CC13CCC2OC(O)C3` (stereo not drawn): the outcome was inactive.

As to `COc1ccc(S(=O)(=O)n2c3c(c4ccccc42)[C@@H]2[C@@H](CCCN2C(=O)CS(=O)c2ccc(C)cc2)[C@H](Cl)C3)cc1` (stereo partly drawn), the EC50 was above 200 µM and the IC50 was above 200 µM.

Take `Cc1cccc(/C=C2\CCCc3ccccc3C2=O)c1`: the EC50 is above 200 µM and the IC50 was 11.2 µM.

Regarding `CCOP(=O)(OCC)/C(C#N)=C/c1c(C)[nH]c2ccccc12`, the EC50 is above 200 µM and the IC50 was determined as 158 µM.

As to `Cc1cn([C@H]2C[C@@H]3[C@@H](COC(CCC[Se]c4ccccc4)N3O)O2)c(=O)[nH]c1=O` (stereo partly drawn), the half-maximal effective concentration (EC50) was 13.2 µM and the IC50 was 117 µM.

As to `C[N+](C)(C)CC(=O)N/N=C(\Cc1nc2ccc([N+](=O)[O-])cc2[nH]c1=O)C(=O)Nc1nc2ccc([N+](=O)[O-])cc2s1`, the EC50 is above 42.7 µM and the IC50 is above 42.7 µM.

With `CC(=O)N(C(C)=O)n1c(Cc2ccc(Cl)cc2)nn(C(C)=O)c1=O`, the EC50 was above 200 µM and the IC50 is above 200 µM.

Turning to `O=C(O)c1cc(O)c2c(=O)c3c(O)cc(O)c4c5c(O)cc(O)c6c(=O)c7c(O)cc(C(=O)O)c8c1c2c(c34)c(c65)c78`, the result was inactive.

As for `O=C(O)c1cc([N+](=O)[O-])cc([N+](=O)[O-])c1/C=C/n1c(=S)[nH]c2ccc([N+](=O)[O-])cc21`, the EC50 is above 100 µM and the IC50 was 91.2 µM.

Take `Cc1c([N+](=O)[O-])c(=O)oc2c1ccc1occc(=O)c12`: the EC50 was above 132 µM and the IC50 was 117 µM.

`CCOC(=O)NC(Nc1ccc(Cl)cn1)(C(F)(F)F)C(F)(F)F`: the EC50 is above 200 µM and the IC50 was above 200 µM.

Take `COc1ccc2c(c1)N(C)CCCC2=O`: the EC50 is above 200 µM and the IC50 came to 151 µM.

With `COc1cccc2c1C(=O)c1c(O)c3c(c(O)c1C2=O)C[C@@](O)(C(C)=O)C[C@@H]3OC1CC(O)C(O)C(C)O1` (stereo partly drawn), the EC50 was above 0.2 µM and the IC50 was found to be 0.0107 µM.

For the compound `CC(C)(C)[Si](C)(C)OCC1OC(n2cnc3c(N)ncnc32)C(O[Si](C)(C)C(C)(C)C)C1O[Si](C)(C)C(C)(C)C` (stereo not drawn), the EC50 is above 200 µM and the IC50 came out at 44.7 µM.

Regarding `Cc1ccc2c3ccc4c(c3n(C)c2c1)C(=O)C=CC4=O`, the EC50 is above 100 µM and the IC50 came out at 1.82 µM.

In the case of `CCCCCCCCC1=C(OC)C(=O)c2c(C)ccnc2C1=O`, the outcome was inactive.

For the compound `Cc1c([O-])c([O-])c(C)c2c1OCO2.[C-]#[O+].[C-]#[O+].[C-]#[O+].[C-]#[O+].[Re]`, the EC50 is above 200 µM and the IC50 was found to be 31.6 µM.

Turning to `Cc1cn(C2CC(O[Si](C)(C)C(C)(C)C)C(/C=N\O)O2)c(=O)[nH]c1=O` (stereo not drawn), the EC50 is above 200 µM and the IC50 is above 200 µM.

As for `O=[N+]([O-])c1ccc(S(=O)(=O)NN2CCOCC2)cc1`, the EC50 is above 126 µM and the IC50 is above 126 µM.

In the case of `COc1ccc(N2C(=O)[C@H]3CC(C)c4c([nH]c5ccccc45)[C@H]3C2=O)cc1` (stereo partly drawn), the EC50 was above 41.7 µM and the IC50 came to 0.871 µM.

In the case of `NCCOB(c1ccccc1)c1ccccc1`, the EC50 was above 200 µM and the IC50 worked out at 38.9 µM.

Consider `O=C(O)c1nc2cc(C(F)(F)F)ccc2[nH]c1=O`, for which the EC50 was above 200 µM and the IC50 was above 200 µM.

As for `C#CC1(O)CCC2C3CCC4=Cc5oncc5CC4(C)C3CCC21C` (stereo not drawn), the EC50 was above 200 µM and the IC50 was found to be 39.8 µM.

For `Cn1c(=O)nc2n(-c3cc(Cl)ccc3Cl)c3ccccc3nc-2c1=O`, the result was inactive.

For the compound `O=C1/C(=C\c2cccc(Oc3ccccc3)c2)SC(c2ccccc2)N1c1cccc([N+](=O)[O-])c1` (stereo not drawn), the EC50 is above 200 µM and the IC50 was 39.8 µM.
